How the values were obtained:
[1] = test system: Erysiphe graminis; assay: Erysiphe graminis potting method; assay type: in vivo; conditions: Blumeria graminis, read-out: Erysiphe graminis control rating; for pest or weed control at 100 µg/mL: 100 mg/L; for pest or weed control at 6.25 µg/mL: 6.25 mg/L; for pest or weed control at 25 µg/mL: 25 mg/L
Method: The fungicidal activity of the control agents and target compounds are determined. The test and investigation method refers to SOP-SC-1116 Erysiphe graminis potting method in disinfectant rolls written by KANGZHUO and GUBAOGEN in “Standard operation specification for testing biological activity of pesticides”.

[2] = molecular target: T1, succinate dehydrogenase (Sus scrofa, UniProt A5GZW8+D0VWV4+Q007T0); assay: Enzyme activity assay, succinate dehydrogenase (DCIP reduction); assay type: biochemical, porcine; conditions: read-out: Inhibitors (10 μM, SQR)
T1 construct: isolated from porcine hearts; from tissue; host or cells: porcine heart
T1 sequence (Q0QF01 43-664 partner): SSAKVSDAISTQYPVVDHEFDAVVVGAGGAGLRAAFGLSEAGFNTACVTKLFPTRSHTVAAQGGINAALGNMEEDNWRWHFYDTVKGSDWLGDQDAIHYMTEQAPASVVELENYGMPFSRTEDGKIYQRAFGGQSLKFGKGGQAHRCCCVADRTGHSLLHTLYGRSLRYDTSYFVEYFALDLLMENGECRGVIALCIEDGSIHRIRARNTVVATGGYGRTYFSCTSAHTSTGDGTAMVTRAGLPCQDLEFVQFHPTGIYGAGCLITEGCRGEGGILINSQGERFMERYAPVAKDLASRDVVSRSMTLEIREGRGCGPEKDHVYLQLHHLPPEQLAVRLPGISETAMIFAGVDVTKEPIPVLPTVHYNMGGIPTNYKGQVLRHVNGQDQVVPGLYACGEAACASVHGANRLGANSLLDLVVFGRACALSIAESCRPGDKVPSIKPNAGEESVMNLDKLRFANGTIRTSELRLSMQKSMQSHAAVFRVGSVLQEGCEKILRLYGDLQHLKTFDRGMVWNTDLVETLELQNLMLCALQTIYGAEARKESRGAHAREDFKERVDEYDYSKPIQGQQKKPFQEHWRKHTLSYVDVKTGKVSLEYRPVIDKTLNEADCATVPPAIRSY
T1 sequence (Q007T0 29-280): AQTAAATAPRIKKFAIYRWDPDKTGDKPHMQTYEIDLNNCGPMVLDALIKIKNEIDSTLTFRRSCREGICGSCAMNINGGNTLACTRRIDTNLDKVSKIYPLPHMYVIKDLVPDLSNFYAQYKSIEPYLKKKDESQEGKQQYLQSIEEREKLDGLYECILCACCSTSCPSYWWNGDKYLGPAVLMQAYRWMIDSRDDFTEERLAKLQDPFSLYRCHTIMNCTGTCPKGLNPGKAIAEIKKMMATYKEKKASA
T1 sequence (D0VWV4 30-169): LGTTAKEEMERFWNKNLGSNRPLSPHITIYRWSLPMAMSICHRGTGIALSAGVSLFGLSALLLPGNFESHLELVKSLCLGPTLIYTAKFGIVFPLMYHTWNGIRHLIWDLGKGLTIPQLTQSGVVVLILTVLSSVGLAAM
T1 sequence (A5GZW8 57-159 limits assumed): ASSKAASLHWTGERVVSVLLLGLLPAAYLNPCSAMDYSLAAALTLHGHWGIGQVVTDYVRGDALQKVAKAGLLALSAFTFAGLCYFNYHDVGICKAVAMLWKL
In short: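 Porcine heart succinate dehydrogenase (2 nM) in 100 mM sodium phosphate pH 7.4, 0.3 mM EDTA, 20 mM sodium succinate and 53 μM DCIP at 23° C with stirring. DCIP reduction followed at 600 nm (ε 21 mM^−1 cm^−1); linear slope minus baseline gives initial rate.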

[3] = test system: Sphaerotheca fuliginea; assay: Sphaerotheca fuliginea potting method; assay type: in vivo; conditions: Podosphaera fuliginea; 100 mg/L; read-out: Sphaerotheca fuliginea control rating
Method: The fungicidal activity of the control agents and target compounds are determined. The test and investigation method refers to SOP-SC-1101 sphaerotheca fuliginea potting method in disinfectant rolls written by KANGZHUO and GUBAOGEN in “Standard operation specification for testing biological activity of pesticides”.

inhibition at 10 µM [2] [%]	Compound	pest or weed control at 100 µg/mL [1] [%]	pest or weed control at 100 µg/mL [3] [%]	pest or weed control at 6.25 µg/mL [1] [%]	pest or weed control at 25 µg/mL [1] [%]
> 90	C=C(c1cccc(OC)c1)C(C)N(C(=O)c1c(C(F)F)nn(C)c1F)C1CC1 (stereo not shown) [Compound 69]	80 to 100	80 to 100		
> 90	CC(C(=C(Cl)Cl)c1ccc(S(C)(=O)=O)cc1Cl)N(C(=O)c1c(C(F)F)nn(C)c1F)C1CC1 (stereo not shown) [Compound 212]	80 to 100	80 to 100		
> 90	C=C(CN(C(=O)c1c(C(F)F)nn(C)c1F)C1CC1)c1ccc(C)cc1C [Compound 33]	80 to 100	80 to 100		
> 90	C=C(CN(C(=O)c1c(C(F)F)nn(C)c1F)C1CC1)c1c(F)cc(F)cc1F [Compound 26]	80 to 100	80 to 100		
> 90	CC(C(=C(Cl)Cl)c1cc(Cl)ccc1F)N(C(=O)c1c(C(F)F)nn(C)c1F)C1CC1 (stereo not shown) [Compound 208]	80 to 100	80 to 100		
> 90	C=C(CN(C(=O)c1c(C(F)F)nn(C)c1F)C1CC1)c1ccccc1Cl [Compound 7]	80 to 100	80 to 100		
> 90	C=C(c1ccccc1Cl)C(C)N(C(=O)c1c(C(F)F)nn(C)c1F)C1CC1 (stereo not shown) [Compound 72]	80 to 100	80 to 100		
> 90	CC(C(=C(Cl)Cl)c1c(Cl)cccc1Cl)N(C(=O)c1c(C(F)F)nn(C)c1F)C1CC1 (stereo not shown) [Compound 172]	80 to 100	80 to 100		
> 90	Cc1cccc(C(=C(Cl)Cl)C(C)N(C(=O)c2c(C(F)F)nn(C)c2F)C2CC2)c1 (stereo not shown) [Compound 192]	80 to 100	80 to 100		
> 90	CC(C(=C(Cl)Cl)c1cccc(Br)c1)N(C(=O)c1c(C(F)F)nn(C)c1F)C1CC1 (stereo not shown) [Compound 186]	80 to 100	80 to 100		
> 90	C=C(c1ccccc1Br)C(C)N(C(=O)c1c(C(F)F)nn(C)c1F)C1CC1 (stereo not shown) [Compound 80]	80 to 100	80 to 100		
> 90	Cn1nc(C(F)F)c(C(=O)N(CC(=C(Cl)Cl)c2ccc(Cl)cc2)C2CC2)c1F [Compound 112]	80 to 100	80 to 100		
> 90	C=C(c1ccc(Br)cc1)C(C)N(C(=O)c1c(C(F)F)nn(C)c1F)C1CC1 (stereo not shown) [Compound 66]	80 to 100	80 to 100		
> 90	Cn1nc(C(F)F)c(C(=O)N(CC(=C(Cl)Cl)c2cc(Cl)cc(Cl)c2)C2CC2)c1F [Compound 122]	80 to 100	80 to 100		
> 90	Cn1nc(C(F)F)c(C(=O)N(CC(=C(Cl)Cl)c2cccc(Br)c2)C2CC2)c1F [Compound 133]	80 to 100	80 to 100		
> 90	Cn1nc(C(F)F)c(C(=O)N(CC(=C(Cl)Cl)c2ccc(F)c(F)c2)C2CC2)c1F [Compound 130]	80 to 100	80 to 100		
> 90	C=C(c1cccc(C)c1)C(C)N(C(=O)c1c(C(F)F)nn(C)c1F)C1CC1 (stereo not shown) [Compound 70]	80 to 100	80 to 100		
> 90	C=C(c1cc(Br)ccc1Br)C(C)N(C(=O)c1c(C(F)F)nn(C)c1F)C1CC1 (stereo not shown) [Compound 83]	80 to 100	80 to 100		
> 90	Cc1ccc(C(CN(C(=O)c2c(C(F)F)nn(C)c2F)C2CC2)=C(Cl)Cl)cc1C [Compound 151]	80 to 100	80 to 100		
> 90	C=C(CN(C(=O)c1c(C(F)F)nn(C)c1F)C1CC1)c1cc(Cl)ccc1F [Compound 44]	80 to 100	80 to 100		
> 90	Cc1ccc(C)c(C(CN(C(=O)c2c(C(F)F)nn(C)c2F)C2CC2)=C(Cl)Cl)c1 [Compound 141]	80 to 100	80 to 100		
> 90	Cc1ccc(C(C)(C)C)cc1C(=C(Cl)Cl)C(C)N(C(=O)c1c(C(F)F)nn(C)c1F)C1CC1 (stereo not shown) [Compound 200]	80 to 100	80 to 100		

inhibition at 10 µM [2] [%]	Compound	pest or weed control at 100 µg/mL [1] [%]	pest or weed control at 100 µg/mL [3] [%]	pest or weed control at 6.25 µg/mL [1] [%]	pest or weed control at 25 µg/mL [1] [%]
> 90	C=C(CN(C(=O)c1c(C(F)F)nn(C)c1F)C1CC1)c1c(C)cc(C)cc1C [Compound 36]	80 to 100	80 to 100	80 to 100	80 to 100
> 90	C=C(CN(C(=O)c1c(C(F)F)nn(C)c1F)C1CC1)c1c(Cl)cccc1Cl [Compound 18]	80 to 100	80 to 100		
> 90	Cn1nc(C(F)F)c(C(=O)N(CC(=C(Cl)Cl)c2cc(Cl)ccc2F)C2CC2)c1F [Compound 155]	80 to 100	80 to 100		
> 90	C=C(CN(C(=O)c1c(C(F)F)nn(C)c1F)C1CC1)c1ccc(Cl)c(C(F)(F)F)c1 [Compound 11]	80 to 100	80 to 100		
> 90	C=C(CN(C(=O)c1c(C(F)F)nn(C)c1F)C1CC1)c1cc(C)ccc1C(C)C [Compound 38]	80 to 100	70 to 80	70 to 80	80 to 100
> 90	C=C(c1cc(C(C)C)ccc1C)C(C)N(C(=O)c1c(C(F)F)nn(C)c1F)C1CC1 (stereo not shown) [Compound 92]	80 to 100	80 to 100		
> 90	C=C(c1cccc(F)c1)C(C)N(C(=O)c1c(C(F)F)nn(C)c1F)C1CC1 (stereo not shown) [Compound 56]	80 to 100	80 to 100		
> 90	C=C(CN(C(=O)c1c(C(F)F)nn(C)c1F)C1CC1)c1cc(C)ccc1C(C)(C)C [Compound 39]	80 to 100	70 to 80		
> 90	C=C(CN(C(=O)c1c(C(F)F)nn(C)c1F)C1CC1)c1ccc(F)cc1Cl [Compound 43]	80 to 100	80 to 100		
> 90	C=C(c1ccc(Cl)cc1)C(C)N(C(=O)c1c(C(F)F)nn(C)c1F)C1CC1 (stereo not shown) [Compound 59]	80 to 100	80 to 100		
> 90	C=C(CN(C(=O)c1c(C(F)F)nn(C)c1F)C1CC1)c1cccc(S(=O)(=O)CC)c1 [Compound 53]	80 to 100	70 to 80		
> 90	C=C(CN(C(=O)c1c(C(F)F)nn(C)c1F)C1CC1)c1ccc(C(F)(F)F)cc1Cl [Compound 47]	80 to 100	80 to 100		
> 90	Cn1nc(C(F)F)c(C(=O)N(CC(=C(Cl)Cl)c2c(Cl)cc(Cl)cc2Cl)C2CC2)c1F [Compound 123]	80 to 100	80 to 100		
> 90	Cn1nc(C(F)F)c(C(=O)N(CC(=C(Cl)Cl)c2ccc(Br)cc2Br)C2CC2)c1F [Compound 134]	80 to 100	80 to 100		
> 90	CC(C(=C(Cl)Cl)c1cccc(F)c1)N(C(=O)c1c(C(F)F)nn(C)c1F)C1CC1 (stereo not shown) [Compound 177]	80 to 100	80 to 100		
> 90	CC(C(=C(Cl)Cl)c1cc(S(C)(=O)=O)ccc1Cl)N(C(=O)c1c(C(F)F)nn(C)c1F)C1CC1 (stereo not shown) [Compound 215]	80 to 100	80 to 100		
> 90	Cn1nc(C(F)F)c(C(=O)N(CC(=C(Cl)Cl)c2ccc(C#CC3CC3)cc2Cl)C2CC2)c1F [Compound 165]	80 to 100	80 to 100		
> 90	C=C(c1ccc(C(C)C)cc1C)C(C)N(C(=O)c1c(C(F)F)nn(C)c1F)C1CC1 (stereo not shown) [Compound 96]	80 to 100	80 to 100		
> 90	CCS(=O)(=O)c1cccc(C(=C(Cl)Cl)C(C)N(C(=O)c2c(C(F)F)nn(C)c2F)C2CC2)c1 (stereo not shown) [Compound 217]	80 to 100	80 to 100		
> 90	C=C(CN(C(=O)c1c(C(F)F)nn(C)c1F)C1CC1)c1cccc(S(C)(=O)=O)c1 [Compound 49]	80 to 100	80 to 100		
> 90	C=C(CN(C(=O)c1c(C(F)F)nn(C)c1F)C1CC1)c1cc(Cl)ccc1Cl [Compound 14]	80 to 100	80 to 100		

— patent publication US12540118B2, “Dendrene amide compound, bactericide and use thereof” (Jiangsu Flag Chemical Industry Co., Ltd., priority 2020, dated 2026)
